Results reported in patent US4065575A, “3-Aminomethyl derivatives of 4-chromanone” (Joullie International, priority 1975, dated 1977).
Where a name gives a salt, the structure may show the parent alone.

Assays:
[1] = tested on: hypertensive effects of electrical stimulation, adrenaline and noradrenaline; assay: α-Sympatholytic effects in amyeliated rats; assay type: in vivo; settings: for % variation of the hypertensive effects obtained with adrenaline: adrenaline 1.25 to 2.5 μg./kg.; for % variation of the hypertensive effects obtained with noradrenaline: noradrenaline 1.25 to 2.5 μg./kg.
Excerpt: The α-sympatholytic effects of LJ 1052 and LJ 1053 are compared with those of isoxsuprine in amyeliated rats which have been prepared by a method derived from those of Shipley and Tilden (Proc. soc. Exp. Biol. Med. 1947, 64, 453-455) and of Gillespie and Muir (Br. J. Pharmac. Chemother. 1967, 30, 78-87).
The effects on the blood pressure of electrical stimulation of the thoracolumbar sympathic nerve (rectangular signals = voltage 20 to 40 volts; width 2 m. sec; frequency 10 secs.; duration 5 to 10 secs.) and of injections of adrenaline (1.25 to 2.5 μg./kg.) and of noradrenaline (1.25 to 2.5 μg./kg.) are determined before and after injection of the products tested.

[2] = Cardiovascular action in dogs; assay type: in vivo, male Beagle dogs
Experimental: Male Beagle dogs weighing 9 to 12 kg. were anaesthetised by intrasaphenous injection of a 2% solution of chloralose in physiological solution, at a dose of 100 mg./kg.
The anaesthesia is maintained by slow perfusion of 5% pentobarbital (1.2 ml./hour).
The animals are tracheotomised and placed under assisted respiration by means of a Bird respirator. Their oxygenation and their acid-base equilibrium are controlled by determination of the pH, the pCO2 and the pO2 on blood samples taken from a collateral of the brachial artery (pH/gas analyser for blood, IL model 213/227).
The different parameters are recorded on a polygraph.

[3] = tested on: mice; assay: Acute toxicity in mice (LD 50); assay type: in vivo; settings: intravenous; in words
Experimental: (§1) The study is carried out on batches of 5 Swiss female mice of the NMRI Han. strain. The products are administered either intravenously (into the caudal vein) in solution in a 9 g..permill. sodium chloride solution, or orally (probang) in suspension in a 10% solution of gum arabic.
(§2) The animals are observed for the 15 days following the administration of the products.
(§3) The LD 50 values are calculated by the method of Karber and Behrens (Arch. Exp. Pathol. Pharm. 177, 1935, page 379).

[4] = tested on: isolated auricle of a rabbit; assay: Peripheral vasomotoricity, isolated and perfused auricle of a rabbit; settings: for activation at 0.0001 mg / activation at 0.001 mg / activation at 0.01 mg / activation at 0.1 mg: Oryctolagus cuniculus, read-out: Maximum variations in the flow rate; for activation at 0.0001 mg: dose 0.1 μg.; for activation at 0.001 mg: dose 1 μg.; for activation at 0.01 mg: dose 10 μg.; for activation at 0.1 mg: dose 100 μg.
Experimental: The flow rate of the liquid issuing from the veins is recorded by electronic contact on a polygraph. The products to be studied are injected at increasing doses into the perfusion tube and their actions are compared to that of isoxsuprine used as the reference substance.
The results, collected in Table No. III, are expressed in the maximum percentage increase of the flow rate at the various doses used.

[5] = tested on: isolated duodenum of a rat; assay: Musculotropic spasmolytic action on the isolated duodenum of a rat (barium chloride contraction); settings: in words
Experimental: The experiments are carried out in accordance with the method of Magnus R. (Arch. ges. Physiol. 1904, 102, 123) on the isolated duodenum of a rat, surviving in oxygenated Tyrode liquid and kept at 38° C. The tonus and the pendular movements of the duodenum were recorded by means of a strain gauge on an electronic polygraph.
The inherent action of the products, and the antagonism exerted against the musculotropic contraction-inducing action of barium chloride was examined. Papaverine is used as the reference substance.

[6] = Acute toxicity in mice (LD 50); assay type: in vivo; settings: mouse, in vivo, mice, 15 days observation
Experimental: as §1, §2, §3

[7] = dose 50 g./kg. (so in the source)
[8] = dose 100 g./kg. (so in the source)
[9] = dose 500 g./kg. (so in the source)
[10] = 0.04 mg./kg. i.v. (1/1,000 LD 50)
[11] = 0.04 mg./kg. i.v. (1/1,000 LD 50), first or only phase
[12] = 0.04 mg./kg. i.v. (1/1,000 LD 50), then

CC(COc1ccccc1)NC(C)C(O)c1ccc(O)cc1 (centres unmarked) [Isoxsuprine, reference compound]
% variation of the hypertensive effects obtained with electrical stimulation [1, 7]: -27% | % variation of the hypertensive effects obtained with adrenaline [1, 7]: -69% | % variation of the hypertensive effects obtained with noradrenaline [1, 7]: -36% | % variation of the hypertensive effects obtained with electrical stimulation [1, 8]: -25% | % variation of the hypertensive effects obtained with adrenaline [1, 8]: -75% | % variation of the hypertensive effects obtained with noradrenaline [1, 8]: -44% | % variation of the hypertensive effects obtained with electrical stimulation [1, 9]: -66% | % variation of the hypertensive effects obtained with adrenaline [1, 9]: -100% | % variation of the hypertensive effects obtained with noradrenaline [1, 9]: -67% | Diastolic AP, duration of action [2, 10]: 20 min | Diastolic AP, maximum per cent variation [2, 10]: -62% | FF (mean flow rate of the femoral artery), maximum per cent variation [2, 10]: +63% | FF, duration of action [2, 10]: 30 min | Hb (heart beat), maximum per cent variation [2, 10]: +13% | Hb, duration of action [2, 10]: 25 min | LVP, duration of action [2, 10]: 5 min | Mean AP, duration of action [2, 10]: 20 min | Mean AP, maximum per cent variation [2, 10]: -50% | Systolic AP, duration of action [2, 10]: 10 min | Systolic AP, maximum per cent variation [2, 10]: +13% | LVP (left ventricular pressure), maximum per cent variation [2, 11]: -22% | dLVP/dt, maximum per cent variation [2, 11]: -18% | dLVP/dt, duration of action, second phase ("then") [2, 12]: 5 min | dLVP/dt, maximum per cent variation, second phase ("then") [2, 12]: +12% | intravenous LD 50 in mice (comparison of three products) [3]: practically identical | activation at 0.0001 mg [4]: 38% | activation at 0.001 mg [4]: 61% | activation at 0.01 mg [4]: 117% | activation at 0.1 mg [4]: 175%

CCCCCNCC1COc2ccccc2C1=O (centres unmarked) [LJ 1046, 3-(n-Pentylaminomethyl)-4-chromanone hydrochloride]
musculotropic spasmolytic action compared with papaverine / within the series [5]: the most active | FF (mean flow rate of the femoral artery), maximum per cent variation ([2]; 0.36 mg./kg. i.v. (1/50 LD 50)): +100% | FF, duration of action ([2]; 0.36 mg./kg. i.v. (1/50 LD 50)): > 20 min | Hb (heart beat), maximum per cent variation ([2]; 0.36 mg./kg. i.v. (1/50 LD 50)): +30% | Hb, duration of action ([2]; 0.36 mg./kg. i.v. (1/50 LD 50)): > 20 min | LVP (left ventricular pressure), maximum per cent variation ([2]; 0.36 mg./kg. i.v. (1/50 LD 50)): -20% | LVP, duration of action ([2]; 0.36 mg./kg. i.v. (1/50 LD 50)): > 20 min | Mean AP, duration of action ([2]; 0.36 mg./kg. i.v. (1/50 LD 50)): > 20 min | Mean AP, maximum per cent variation ([2]; 0.36 mg./kg. i.v. (1/50 LD 50)): -36% | dLVP/dt, duration of action ([2]; 0.36 mg./kg. i.v. (1/50 LD 50)): > 20 min | dLVP/dt, maximum per cent variation ([2]; 0.36 mg./kg. i.v. (1/50 LD 50)): +43% | LD50 at 360 h ([6]; intravenous administration): 18 mg/kg | LD50 at 360 h ([6]; oral administration): 237 mg/kg | activation at 0.0001 mg [4]: 38% | activation at 0.001 mg [4]: 29% | activation at 0.01 mg [4]: 61% | activation at 0.1 mg [4]: 77% | maximum increases in the flow rate ([4]; all doses (0.1 to 100 μg.)): ≤ 100%

CCCNCC1COc2ccccc2C1=O (centres unmarked) [LJ 1048, 3-(n-Propylaminomethyl)-4-chromanone hydrochloride]
Hb (heart beat), maximum per cent variation ([2]; 0.7 mg./kg. i.v. (1/50 LD 50)): +33% | Hb, duration of action ([2]; 0.7 mg./kg. i.v. (1/50 LD 50)): > 60 min | LVP (left ventricular pressure), maximum per cent variation ([2]; 0.7 mg./kg. i.v. (1/50 LD 50)): -21% | LVP, duration of action ([2]; 0.7 mg./kg. i.v. (1/50 LD 50)): 30 min | Mean AP, duration of action ([2]; 0.7 mg./kg. i.v. (1/50 LD 50)): > 60 min | Mean AP, maximum per cent variation ([2]; 0.7 mg./kg. i.v. (1/50 LD 50)): -38% | dLVP/dt, duration of action ([2]; 0.7 mg./kg. i.v. (1/50 LD 50)): 60 min | dLVP/dt, maximum per cent variation ([2]; 0.7 mg./kg. i.v. (1/50 LD 50)): +28% | LD50 at 360 h ([6]; intravenous administration): 36 mg/kg | LD50 at 360 h ([6]; oral administration): 362 mg/kg | activation at 0.0001 mg [4]: 22% | activation at 0.001 mg [4]: 33% | activation at 0.01 mg [4]: 33% | activation at 0.1 mg [4]: 29% | peripheral vasodilatory action ([4]; in words): low activity
